Experimental findings from publication PMC7136958, “Targeting the pregnane X receptor using microbial metabolite mimicry” (EMBO Molecular Medicine, 2020) are described below.

Where “and” joins values, the source holds several entries; their conditions need not be identical. Equal entries are not always repeated. Where two headings read alike, the source gives them in different places.

One series deals with mdr1. Description: PXR target gene expression in hPXR mice (mice expressing the human PXR gene) after FKK6 gavage. The format is in vivo, mouse. Conditions: both sexes, C57BL/6-Nr1i2tm1(NR1I2)Arte (hPXR mice), mouse, 500 μM, 5 doses (60 h), individual mice. On the procedure: (Scheer et al, 2010) were administered 10% DMSO (n = 3) or FKK6 (n = 3) in 3 or 5 doses, with each dose interval of 12 h. Each gavage dose volume was 100 μl. 2–4 h after the dosing period, mice were sacrificed, and tissues were harvested for further analysis. The mouse studies were performed three independent times over an 18‐month period. All purchased mice were acclimatized in the Einstein vivarium for ~ 2 weeks before experiments started. […]. The room temperature was maintained at 25 ± 2°C with 55 ± 5% humidity. All studies were approved by the Institute of Animal Studies at the Albert Einstein College of Medicine, INC (IACUC # 20160706, 20160701 and preceding protocols), and specific animal protocols were also approved by additional protocols (IACUC# 20170406, 20170504) and Animal Care and Use Review Office (ACURO) of the US Army Medical Research and Materiel Command (PR160167, W81XWH‐17‐1‐0479). […]
Mouse small, large intestine and liver samples were collected and total RNAs were […]
isolated. […] Each tissue PCR was […]
repeated in quadruplicate. The expression was normalized to internal control, GAPDH. ( b,d) The histograms show mean (95 %CI) values, c, mean (SD) and two way ANOVA followed with Tukey's post hoc test. The entire experiment was repeated n = 3 for reproducibility. The data shown is one representative experiment .

For a further series, the target named is ERK2 (Homo sapiens, UniProt P28482). The series is described as follows: KINOMEscan select kinase screen. The series is classed as binding. Conditions: two experiments. As to the method: (§1) Kinase Assays. The kinase inhibition assays were conducted by DiscoverX on a platform assay by Ambit BioSciences as described previously 16,17. FKK6 was screened at a single concentration of 10 μM in duplicate. The scanMAXSM assay panel measures 468 kinases
ERK2, sequence (P28482 whole entry): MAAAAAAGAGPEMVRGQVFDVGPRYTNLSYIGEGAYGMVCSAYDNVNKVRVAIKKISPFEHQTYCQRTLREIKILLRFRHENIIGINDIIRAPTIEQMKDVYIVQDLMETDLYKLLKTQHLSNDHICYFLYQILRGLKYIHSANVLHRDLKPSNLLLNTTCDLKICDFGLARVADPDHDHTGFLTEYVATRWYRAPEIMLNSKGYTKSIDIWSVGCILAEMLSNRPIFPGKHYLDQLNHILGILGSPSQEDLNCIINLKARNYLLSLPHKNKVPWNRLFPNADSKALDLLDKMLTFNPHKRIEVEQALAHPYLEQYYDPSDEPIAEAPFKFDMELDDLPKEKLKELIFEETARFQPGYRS
(§2) (https://www.discoverx.com/services/drug-discovery-development-services/kinase-profiling/kinomescan/scanmax). The assays measure a compound’s ability to inhibit binding of a canonical ligand substrate, with 0% activity of control corresponding to full inhibition and 100% activity of control to no inhibition. […]
(§3) quantitative measure of compound selectivity based on the number of kinase hits (enzymes inhibited) divided by the total number of distinct kinases tested. Three different activity cut-offs were analyzed – […]
(§4) ; and S(1) or % activity of control
(§5) < 1. To illustrate effect or lack of effect, an image of the entire family of kinases tested were grouped by families and S(35). The TREEspot Kinase dendrogram image was generated using TREEspot™ Software Tool and reprinted with permission from KINOME scan®, a division of DiscoveRx […]

For a further series, the target named is T1, ERK8 (Homo sapiens, UniProt Q8TD08).
T1 sequence (Q8TD08 1-544): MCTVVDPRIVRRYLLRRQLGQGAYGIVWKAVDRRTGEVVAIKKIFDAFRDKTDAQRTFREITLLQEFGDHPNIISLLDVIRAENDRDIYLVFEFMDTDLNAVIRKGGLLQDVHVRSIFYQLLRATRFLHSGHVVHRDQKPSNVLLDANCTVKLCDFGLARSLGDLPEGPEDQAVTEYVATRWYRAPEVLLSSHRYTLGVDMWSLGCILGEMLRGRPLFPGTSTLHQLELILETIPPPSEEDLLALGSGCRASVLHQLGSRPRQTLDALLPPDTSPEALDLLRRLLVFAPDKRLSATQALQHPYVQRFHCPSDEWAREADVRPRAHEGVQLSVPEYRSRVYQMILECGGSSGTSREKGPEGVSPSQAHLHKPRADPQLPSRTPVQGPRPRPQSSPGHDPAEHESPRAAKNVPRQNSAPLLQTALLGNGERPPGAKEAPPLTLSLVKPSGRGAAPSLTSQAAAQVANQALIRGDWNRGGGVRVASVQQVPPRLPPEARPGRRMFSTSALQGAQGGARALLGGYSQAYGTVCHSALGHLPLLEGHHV
Description: KINOMEscan select kinase screen. The series is classed as binding. Conditions: two experiments. As to the method:
as §1, §2, §3, §4, §5

The next series deals with GSK3A (Homo sapiens, UniProt P49840). The series is described as follows: KINOMEscan select kinase screen. The format is binding. Conditions: two experiments. As to the method: as §1, §2, §3, §4, §5
GSK3A, sequence (P49840 whole entry): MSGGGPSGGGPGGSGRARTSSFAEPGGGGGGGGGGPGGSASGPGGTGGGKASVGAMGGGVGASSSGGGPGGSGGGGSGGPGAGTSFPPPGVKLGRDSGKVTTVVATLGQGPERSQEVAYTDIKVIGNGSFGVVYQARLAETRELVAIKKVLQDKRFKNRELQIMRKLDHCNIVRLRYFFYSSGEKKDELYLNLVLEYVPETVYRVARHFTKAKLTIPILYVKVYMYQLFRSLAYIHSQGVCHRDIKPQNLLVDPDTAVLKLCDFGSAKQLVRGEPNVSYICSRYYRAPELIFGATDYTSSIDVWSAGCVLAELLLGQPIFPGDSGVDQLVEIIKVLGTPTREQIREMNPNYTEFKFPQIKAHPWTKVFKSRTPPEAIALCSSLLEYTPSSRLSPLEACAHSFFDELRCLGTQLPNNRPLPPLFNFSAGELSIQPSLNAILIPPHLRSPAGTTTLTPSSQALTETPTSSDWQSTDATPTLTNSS
For the next series, the target named is T2, IKK-alpha (Homo sapiens, UniProt O15111).
T2 sequence (O15111 1-745): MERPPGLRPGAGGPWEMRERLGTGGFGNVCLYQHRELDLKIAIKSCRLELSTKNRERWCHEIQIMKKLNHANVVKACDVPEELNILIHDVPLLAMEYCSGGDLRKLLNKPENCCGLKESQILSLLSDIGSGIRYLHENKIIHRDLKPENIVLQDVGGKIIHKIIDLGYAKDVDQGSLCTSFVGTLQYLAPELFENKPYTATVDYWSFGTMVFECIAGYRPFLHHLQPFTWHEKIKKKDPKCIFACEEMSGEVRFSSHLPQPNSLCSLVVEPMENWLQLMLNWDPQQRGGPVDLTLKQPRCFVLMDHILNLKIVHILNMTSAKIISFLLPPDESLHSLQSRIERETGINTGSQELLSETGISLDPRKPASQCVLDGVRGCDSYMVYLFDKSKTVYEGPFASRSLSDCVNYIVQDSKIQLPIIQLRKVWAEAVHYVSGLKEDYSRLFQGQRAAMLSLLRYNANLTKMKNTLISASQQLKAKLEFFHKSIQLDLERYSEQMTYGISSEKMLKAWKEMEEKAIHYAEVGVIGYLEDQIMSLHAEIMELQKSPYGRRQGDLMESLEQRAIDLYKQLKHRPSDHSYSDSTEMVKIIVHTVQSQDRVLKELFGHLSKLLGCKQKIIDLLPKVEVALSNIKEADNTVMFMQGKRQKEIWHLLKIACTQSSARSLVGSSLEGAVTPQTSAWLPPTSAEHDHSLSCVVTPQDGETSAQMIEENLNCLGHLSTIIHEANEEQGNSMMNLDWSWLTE
Description: KINOMEscan select kinase screen. The note with it: two experiments. The format is binding. As to the method:
as §1, §2, §3, §4, §5

A further series deals with ERK1 (Homo sapiens, UniProt P27361). Description: KINOMEscan select kinase screen. The series is classed as binding. The note with it: 10000 nM, two experiments. As to the method:
as §1, §2, §3, §4, §5

The next series concerns the target GSK3B (Homo sapiens, UniProt P49841). Description: KINOMEscan select kinase screen. The series is classed as binding. Conditions: two experiments. On the procedure:
as §1, §2, §3, §4, §5

The target of a further series is CDK2 (Homo sapiens, UniProt P24941). Description: KINOMEscan select kinase screen. The series is classed as binding. Conditions: two experiments. On the procedure: as §1, §2, §3, §4, §5

GSK3B, sequence (P49841 whole entry): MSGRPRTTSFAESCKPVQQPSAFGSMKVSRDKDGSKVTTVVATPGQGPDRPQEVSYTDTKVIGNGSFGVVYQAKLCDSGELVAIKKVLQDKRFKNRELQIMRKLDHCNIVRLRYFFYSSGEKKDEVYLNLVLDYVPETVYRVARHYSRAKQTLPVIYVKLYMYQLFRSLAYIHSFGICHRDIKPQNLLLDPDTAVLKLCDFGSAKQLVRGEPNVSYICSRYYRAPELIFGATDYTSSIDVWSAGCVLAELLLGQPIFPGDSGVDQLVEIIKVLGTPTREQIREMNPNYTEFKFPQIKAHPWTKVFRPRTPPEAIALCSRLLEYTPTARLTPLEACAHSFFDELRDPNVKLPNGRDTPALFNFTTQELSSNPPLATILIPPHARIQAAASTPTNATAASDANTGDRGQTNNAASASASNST
ERK1, sequence (P27361 whole entry): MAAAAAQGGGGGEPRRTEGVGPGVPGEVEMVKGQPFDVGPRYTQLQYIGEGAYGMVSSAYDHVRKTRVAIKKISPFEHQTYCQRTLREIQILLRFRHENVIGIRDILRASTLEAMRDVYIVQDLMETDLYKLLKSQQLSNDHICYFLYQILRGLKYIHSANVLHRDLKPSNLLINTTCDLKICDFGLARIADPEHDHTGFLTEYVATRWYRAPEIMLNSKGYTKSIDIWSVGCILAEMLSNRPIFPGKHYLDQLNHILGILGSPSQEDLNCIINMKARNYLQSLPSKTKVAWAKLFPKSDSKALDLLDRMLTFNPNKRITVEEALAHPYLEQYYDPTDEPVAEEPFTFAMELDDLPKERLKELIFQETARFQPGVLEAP

As for `C#CCC(O)(c1ccncc1)c1cc2ccccc2n1S(=O)(=O)c1ccccc1` (stereo not shown) [FKK6], the fold induction at 60 h, 500 µM was determined as 1.85 in the series with mdr1 (in vivo, read-out: mdr1 fold induction, Large Intestine); 1.96 in the series with mdr1 (large intestine, oral, read-out: mdr1 fold induction, Large Intestine); 1.84 in the series on mdr1 (small intestine, oral, read-out: mdr1 fold induction, Small Intestine).
For the compound `O=C(c1ccncc1)c1cc2ccccc2n1S(=O)(=O)c1ccccc1` [FKK5, (1-(phenylsulfonyl)-1H-indol-2-yl)(pyridin-4-yl)methanone], the “%Ctrl” value was 100 %Ctrl on ERK2 (10000 nM, 10 µM); 85 %Ctrl at ERK2 (25000 nM, 25 µM); 97 %Ctrl and 71 %Ctrl at ERK8 (10000 nM, 10 µM); 65 %Ctrl at ERK8 (25000 nM, 25 µM); 92 %Ctrl on GSK3A (10000 nM, 10 µM); 49 %Ctrl and 77 %Ctrl at GSK3A (25000 nM, 25 µM). The “%Ctrl” value was 86 %Ctrl on IKK-alpha (10000 nM, 10 µM); 100 %Ctrl at IKK-alpha (25000 nM, 25 µM); 100 %Ctrl at ERK1 (10 µM); 92 %Ctrl on GSK3B (10000 nM, 10 µM); 90 %Ctrl at GSK3B (25000 nM, 25 µM); 100 %Ctrl and 74 %Ctrl on CDK2 (10000 nM, 10 µM). Besides, the “%Ctrl” value at CDK2 (25000 nM, 25 µM) is 89 %Ctrl and 63 %Ctrl. Also, the remaining binding at 10 µM on ERK2 (10000 nM, read-out: %Ctrl) came out at 99%; on GSK3A (10000 nM, read-out: %Ctrl), 79%; at IKK-alpha (10000 nM, read-out: %Ctrl) it was 96%; on ERK1 (read-out: %Ctrl) it was 86%; on GSK3B (10000 nM, read-out: %Ctrl) it was 100%. Moreover, the remaining binding at 25 µM amounted to 94% on ERK2 (25000 nM, read-out: %Ctrl); 75% on ERK8 (25000 nM, read-out: %Ctrl); 83% at IKK-alpha (25000 nM, read-out: %Ctrl); 98% on GSK3B (25000 nM, read-out: %Ctrl).
